Experimental data reported in patent US7176183B2, “Methods for treating and preventing damage to mucosal tissue” (University of Southern California, priority 1999, dated 2007).
Where “and” joins values, the source holds several entries; their conditions need not be identical. Equal entries are not always repeated. Entries after “also recorded” stand apart in the source; their conditions may differ.

Key:
[1] = tested on: Female C57B1/6 mice; experiment: Gastrointestinal mucositis induced by cyclophosphamide injection into mice, histological scoring; type: in vivo; parameters: key to Overall score: 0: No lesion; <10% Crypts distorted; 2: >10% Crypts distorted, no necrotic cells; 3: >10% Crypts distorted, occasional necrotic cell; 4: Same as 3 except more extensive; key to Epithelium score / Crypt Architecture score: 0: Normal; <10% Crypt distortion; 2: 10–50% Crypt distortion; 3: >50% Crypt distortion; details: for Epithelium score / Crypt Architecture score / Overall score: AII(1–7) 100 μg/kg s.c., one line per animal
Description: Female C57B1/6 mice were given an intraperitoneal injection of cyclophosphamide at concentrations of 200 or 250 mg/kg. After 2 days, the mice began treatment with either AII(1–7) (100 μg/kg), or phosphate buffered saline, both of which were given subcutaneously. The baseline weight of the mice was determined, and the mice were observed daily for 7–14 days, after which the animals were necropsied. Samples from the intestines were taken at four levels, in that the intestine was cut transversely at four places along the intestinal tract, from which histological preparations were made and evaluated, in order to reduce bias due to site selection. The samples were fixed in formalin for histological evaluation of crypt distortion and architecture, as well as epithelial attenuation. The crypt is a part of the gastrointestinal tract where the mucosal glands reside. Crypt distortion is a measure of the amount of disruption to the tissue that occurs as a result of mucosal damage. The epithelium is the cell/mucosal lining to the gastrointestinal tract. Epithelial attenuation is a measure of the amount of destruction to the epithelial lining.
Histological scoring was performed in a blinded fashion. The scores on the accompanying table were given on the following scale: […]

[2] = tested on: patients with newly diagnosed breast cancer receiving doxorubicin and cyclophosphamide; experiment: Phase I/II dose escalation study of AII(1–7) in chemotherapy patients: incidence of stomatitis (oral mucositis); type: in vivo; details: for Stomatitis (incidents of stomatitis associated with chemotherapy): chemotherapy patients (doxorubicin/cyclophosphamide), subcutaneous treatment, AII(1-7) n = 14, filgrastim n = 5
Description: The Phase I/II study was a prospective, open-label, dose-escalation study comparing the effects of AII(1–7 (SEQ ID NO:4)) in patients with newly diagnosed breast cancer receiving doxorubicin 60 mg/m^2 and cyclophosphamide 600 mg/m^2 for at least 3 cycles of adjuvant chemotherapy following surgical tumor reduction. A filgrastim comparator arm was used to compare safety and response variables and to assess synergy of AII(1–7) with filgrastim (NEUPOGEN®, Amgen, Inc., Thousand Oaks, Calif.).
Patients who satisfied the inclusion/exclusion criteria received a once daily subcutaneous injection of the given AII(1–7) dose level for 7 days followed by a 1 week rest period prior to any chemotherapy (cycle 0) in the interval between tumor reduction and planned chemotherapy. Dose escalation within an individual patient was not permitted.
Following the rest period, a chemotherapy regimen containing doxorubicin 60 mg/m^2 and cyclophosphamide 600 mg/m^2 was initiated. AII(1–7) was administered for at least 10 days, or until the absolute neutrophil count (ANC)>1500/μL for 2 days, beginning two days after chemotherapy. Up to three chemotherapy cycles followed by AII(1–7) administration will be repeated every 21 days or as indicated by patient tolerance. Any patient that fails to achieve an ANC>1500/μL by day 15 (13 days of AII(1–7)) received a filgrastim rescue of 5.0 μg/kg/day until the ANC>1500/μL for 2 days.
During the conduct of the AII (1–7) clinical trial to examine the effect of subcutaneous injection of AII(1–7) on hematological recovery in new breast cancer patients receiving chemotherapy (doxorubicin/cyclophosphamide), adverse events that occurred were collected.
An adverse event (AE) was considered any unfavorable or unintended change in structure, function, signs, or symptoms temporally associated with the use of a medicinal product experienced by a person administered a pharmaceutical product, whether or not a causal relationship with the product has been established. During the conduct of this clinical trial, study personnel asked open-ended questions to obtain information about AEs at every visit. Signs and symptoms were graded by the Investigator using the WHO toxicity criteria. […] If there was stomatitis, it was graded on a four point scale as: […]

[3] = Effectiveness test of AII fragments (test not specified)
[4] = cyclophosphamide 200 mg/kg i.p., listed as A(1-7)
[5] = cyclophosphamide 250 mg/kg i.p., listed as A(1-7)

In the case of Asp-Arg-Val-Tyr-Ile-His-Pro [AII(1–7)], the Epithelium score ([1]; cyclophosphamide 200 mg/kg i.p.) is reported as 1 (Mild Attenuation (<10%)), the “Crypt Architecture score” value [1, 4] is reported as 0 and 1 (<10% Crypt distortion) (2×) and the Overall score [1, 4] is reported as 0 and 1 (<10% Crypts distorted) (2×). For the same molecule, the “Crypt Architecture score” value [1, 5] was 1 (<10% Crypt distortion) (2×) and 2 (10–50% Crypt distortion), the Epithelium score [1, 5] was 0 and 1 (Mild Attenuation (<10%)) (2×) and the Overall score [1, 5] was 0 and 1 (<10% Crypts distorted) and 2 (>10% Crypts distorted, no necrotic cells). The “Level of gastrointestinal mucositis by all histological scores” value ([1]; versus saline) was “reduced”, the “Reduction of the frequency of stomatitis relative to that observed with filgrastim treatment” value ([2]; chemotherapy patients) was 30% and the “Stomatitis (incidents of stomatitis associated with chemotherapy)” value [2] was 40%. The “Effect on stomatitis (oral mucositis) relative to control” value ([2]; subcutaneous administration, chemotherapy patients) was “reduced; also recorded: significantly decreased”.

In the case of His-Pro-Phe (HPF) [AII(6–8)], the Effectiveness [3] is reported as “not to be effective”.

In the case of Tyr-Ile-His-Pro-Phe (YIHPF) [AII(4–8)], the Effectiveness [3] is reported as “not to be effective; also recorded: ineffective”.

B1: filgrastim (protein, chains of the INN, looked up)
chain: MTPLGPASSLPQSFLLKCLEQVRKIQGDGAALQEKLCATYKLCHPEELVLLGHSLGIPWAPLSSCPSQALQLAGCLSQLHSGLFLYQGLLQALEGISPELGPTLDTLQLDVADFATTIWQQMEELGMAPALQPTQGAMPAFASAFQRRAGGVLVASHLQSFLEVSYRVLRHLAQP
notes: filgrastim (NEUPOGEN®, Amgen, Inc.), comparator arm
For B1, the “Stomatitis (incidents of stomatitis associated with chemotherapy)” value [2] was 60%.
